Data published in PubChem BioAssay AID328 (DTP/NCI, 2004).
Values joined by “and” are separate entries in the source; they are usually repeats but may differ in a detail not shown here. Equal entries are not always repeated. Inconclusive results and toxic doses are left out.

Test system: BDF1 mice, P388 leukemia ip, median survival T/C
Experiment: NCI In Vivo Anticancer Drug Screen. Data for tumor model P388 Leukemia (intraperitoneal) in B6D2F1 (BDF1) mice
Conditions: endpoint: median survival time, higher = longer survival
How it was run: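 In tumour-bearing mice, survival after compound treatment is set against the vehicle group and given as a quotient.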

[1] = dose: 25.0 mg/kg/injection, schedule: Q01DX009 (ip), vehicle: saline with Tween-80
[2] = dose: 50.0 mg/kg/injection, schedule: Q01DX009 (ip), vehicle: saline with Tween-80
[3] = dose: 100.0 mg/kg/injection, schedule: Q01DX009 (ip), vehicle: saline with Tween-80
[4] = dose: 200.0 mg/kg/injection, schedule: Q01DX009 (ip), vehicle: saline with Tween-80
[5] = dose: 100.0 mg/kg/injection, schedule: Q04DX003 (ip), vehicle: saline with Tween-80
[6] = dose: 200.0 mg/kg/injection, schedule: Q04DX003 (ip), vehicle: saline with Tween-80
[7] = dose: 400.0 mg/kg/injection, schedule: Q04DX003 (ip), vehicle: saline with Tween-80
[8] = dose: 100.0 mg/kg/injection, schedule: Q04DX003 (ip), vehicle: Klucel (hydroxypropylcellulose) (HPC)
[9] = dose: 200.0 mg/kg/injection, schedule: Q04DX003 (ip), vehicle: Klucel (hydroxypropylcellulose) (HPC)

COCCOC1=C(N2CC2)C(=O)C(OCCOC)=C(N2CC2)C1=O
T/C (dose: 0.26 mg/kg/injection, schedule: Q01DX009 (ip), vehicle: saline): 99 % of control
T/C (dose: 0.4 mg/kg/injection, schedule: Q01DX009 (ip), vehicle: saline): 108 % of control
T/C (dose: 0.88 mg/kg/injection, schedule: Q01DX009 (ip), vehicle: saline): 163 % of control
T/C (dose: 0.88 mg/kg/injection, schedule: Q04DX003 (ip), vehicle: saline): 121 % of control
T/C (dose: 0.9 mg/kg/injection, schedule: Q01DX009 (ip), vehicle: saline): 108 % of control
T/C (dose: 1.0 mg/kg/injection, schedule: Q01DX009 (ip), vehicle: saline): 171 % of control and 180 % of control
T/C (dose: 1.32 mg/kg/injection, schedule: Q01DX009 (ip), vehicle: saline): 209 % of control
T/C (dose: 1.32 mg/kg/injection, schedule: Q04DX003 (ip), vehicle: saline): 113 % of control
T/C (dose: 2.0 mg/kg/injection, schedule: Q01DX009 (ip), vehicle: saline): 223 % of control and 263 % of control and 220 % of control
T/C (dose: 3.0 mg/kg/injection, schedule: Q01DX009 (ip), vehicle: saline): 231 % of control
T/C (dose: 3.0 mg/kg/injection, schedule: Q04DX003 (ip), vehicle: saline): 152 % of control
T/C (dose: 3.3 mg/kg/injection, schedule: Q04DX003 (ip), vehicle: saline): 186 % of control
T/C (dose: 4.0 mg/kg/injection, schedule: Q01DX009 (ip), vehicle: saline): 109 % of control and 115 % of control
T/C (dose: 5.0 mg/kg/injection, schedule: Q04DX003 (ip), vehicle: saline): 209 % of control
T/C (dose: 6.25 mg/kg/injection, schedule: Q04DX003 (ip), vehicle: saline): 236 % of control
T/C (dose: 7.5 mg/kg/injection, schedule: Q04DX003 (ip), vehicle: saline): 272 % of control
T/C (dose: 12.5 mg/kg/injection, schedule: Q04DX003 (ip), vehicle: saline): 118 % of control

O=C1C=C2SCCN2C(=O)C1
T/C [1]: 99 % of control
T/C [2]: 99 % of control and 109 % of control
T/C [3]: 97 % of control and 124 % of control
T/C [4]: 105 % of control and 114 % of control

CC(C)(O)c1cc(Cl)ccc1Sc1ccccc1
T/C [5]: 105 % of control
T/C [6]: 91 % of control
T/C [7]: 108 % of control

COc1ccc2c(c1OC)C(=O)O[C@@H]2[C@H]1c2c(cc3c(c2OC)OCO3)CCN1C
T/C (dose: 31.3 mg/kg/injection, schedule: Q01DX010 (ip), vehicle: saline): 95 % of control
T/C (dose: 62.5 mg/kg/injection, schedule: Q01DX010 (ip), vehicle: saline): 104 % of control
T/C (dose: 125.0 mg/kg/injection, schedule: Q01DX010 (ip), vehicle: saline): 100 % of control
T/C (dose: 250.0 mg/kg/injection, schedule: Q01DX010 (ip), vehicle: saline): 100 % of control

COc1ccc(C(=O)/C(Br)=C/C(=O)O)cc1
T/C (dose: 6.3 mg/kg/injection, schedule: Q01DX009 (ip), vehicle: saline): 106 % of control
T/C (dose: 12.5 mg/kg/injection, schedule: Q01DX009 (ip), vehicle: water): 120 % of control
T/C (dose: 25.0 mg/kg/injection, schedule: Q01DX009 (ip), vehicle: water): 150 % of control
T/C (dose: 25.0 mg/kg/injection, schedule: Q04DX002 (ip), vehicle: saline): 108 % of control and 109 % of control
T/C (dose: 50.0 mg/kg/injection, schedule: Q01DX009 (ip), vehicle: water): 100 % of control
T/C (dose: 50.0 mg/kg/injection, schedule: Q04DX002 (ip), vehicle: saline): 116 % of control and 118 % of control
T/C (dose: 100.0 mg/kg/injection, schedule: Q04DX002 (ip), vehicle: saline): 150 % of control

CC(Oc1ccccc1)C(=O)N=c1scc(-c2ccc(Br)cc2)n1-c1cccc2ccccc12 (stereo not drawn)
T/C (dose: 12.5 mg/kg/injection, schedule: Q01DX009 (ip), vehicle: gum acacia): 110 % of control
T/C (dose: 50.0 mg/kg/injection, schedule: Q01DX009 (ip), vehicle: gum acacia): 118 % of control

O=[N+]([O-])c1cccc(OCCCOc2ccccc2)c1
T/C (dose: 100.0 mg/kg/injection, schedule: Q01DX009 (ip), vehicle: other): 100 % of control
T/C (dose: 100.0 mg/kg/injection, schedule: Q04DX003 (ip), vehicle: other): 110 % of control
T/C (dose: 200.0 mg/kg/injection, schedule: Q01DX009 (ip), vehicle: other): 100 % of control
T/C (dose: 200.0 mg/kg/injection, schedule: Q04DX003 (ip), vehicle: other): 110 % of control
T/C (dose: 400.0 mg/kg/injection, schedule: Q01DX009 (ip), vehicle: other): 100 % of control
T/C (dose: 400.0 mg/kg/injection, schedule: Q04DX003 (ip), vehicle: other): 100 % of control

CCOC(=O)C1CCCC23CC(CC12)C(C)(C)C3Br (stereo not drawn)
T/C [8]: 100 % of control
T/C [9]: 90 % of control
T/C (dose: 400.0 mg/kg/injection, schedule: Q04DX003 (ip), vehicle: Klucel (hydroxypropylcellulose) (HPC)): 100 % of control

c1ccc(-c2ncnc3c2Cc2ccccc2-3)cc1
T/C [3]: 104 % of control
T/C [5]: 100 % of control
T/C [4]: 104 % of control
T/C [6]: 100 % of control
T/C (dose: 400.0 mg/kg/injection, schedule: Q01DX009 (ip), vehicle: saline with Tween-80): 91 % of control
T/C [7]: 109 % of control

Nc1cc(C(=O)Nc2ccc(C3=NCCN3)cc2)ccc1C(=O)Nc1ccc(C2=NCCN2)cc1
T/C (dose: 1.4 mg/kg/injection, schedule: Q01DX009 (ip), vehicle: saline with Tween-80): 158 % of control
T/C (dose: 2.2 mg/kg/injection, schedule: Q01DX009 (ip), vehicle: saline with Tween-80): 154 % of control
T/C (dose: 3.3 mg/kg/injection, schedule: Q01DX009 (ip), vehicle: saline with Tween-80): 154 % of control and 200 % of control
T/C (dose: 5.0 mg/kg/injection, schedule: Q01DX009 (ip), vehicle: saline with Tween-80): 191 % of control
T/C (dose: 8.0 mg/kg/injection, schedule: Q01DX009 (ip), vehicle: saline with Tween-80): 230 % of control
T/C (dose: 12.0 mg/kg/injection, schedule: Q01DX009 (ip), vehicle: saline with Tween-80): 230 % of control
T/C (dose: 12.5 mg/kg/injection, schedule: Q01DX009 (ip), vehicle: saline with Tween-80): 230 % of control
T/C (dose: 13.0 mg/kg/injection, schedule: Q04DX003 (ip), vehicle: saline with Tween-80): 170 % of control
T/C (dose: 20.0 mg/kg/injection, schedule: Q04DX003 (ip), vehicle: saline with Tween-80): 208 % of control
T/C [1]: 230 % of control
T/C (dose: 30.0 mg/kg/injection, schedule: Q04DX003 (ip), vehicle: saline with Tween-80): 250 % of control and 181 % of control
T/C (dose: 44.0 mg/kg/injection, schedule: Q04DX003 (ip), vehicle: saline with Tween-80): 272 % of control
T/C [2]: 92 % of control
T/C (dose: 66.0 mg/kg/injection, schedule: Q04DX003 (ip), vehicle: saline with Tween-80): 229 % of control and 272 % of control
T/C [5]: 166 % of control and 204 % of control
T/C (dose: 150.0 mg/kg/injection, schedule: Q04DX003 (ip), vehicle: saline with Tween-80): 100 % of control
T/C [6]: 100 % of control

O=c1[nH]c(=S)c2c3c(sc2[nH]1)CCCC3
T/C (dose: 75.0 mg/kg/injection, schedule: Q04DX003 (ip), vehicle: saline sonified): 100 % of control
T/C (dose: 150.0 mg/kg/injection, schedule: Q04DX003 (ip), vehicle: saline sonified): 100 % of control
T/C (dose: 300.0 mg/kg/injection, schedule: Q04DX003 (ip), vehicle: saline sonified): 100 % of control

CC(C)Cc1c(N)nc(=O)[nH]c1C(=O)O
T/C (dose: 50.0 mg/kg/injection, schedule: Q04DX003 (ip), vehicle: Klucel (hydroxypropylcellulose) (HPC)): 109 % of control
T/C [8]: 95 % of control
T/C [9]: 100 % of control

COC1(OC)C2(Cl)CC(c3ccc(Cl)cc3)C1(Cl)C(Cl)=C2Cl (stereo not drawn)
T/C (dose: 50.0 mg/kg/injection, schedule: Q04DX003 (ip), vehicle: saline with Tween-80): 100 % of control
T/C [5]: 95 % of control
T/C [6]: 90 % of control
